Results published in patent US20070275935A1, “Estratriene Derivatives” (priority 2003, published 2007).

Experiments:
[1] = system: type II airway epithelial cell line, A549; test: Proliferation of A549 cells in response to 5% FCS; assay type: cell-based, human; settings: Homo sapiens, A549; proliferation in response to 5% FCS; pIC50 of 4.00 = inactive; read-out: A549 PIC50 (converted)
Experimental: The effects of 4NO were evaluated in a number of non-smooth muscle cell types including the type II airway epithelial cell line, A549 (ATCC accession number ATCC CCL-185 Lung carcinoma human) (FIG. 2); the human breast tumour cell line, MCF7, (ATTC accession number ATCC HTB-22 breast adenocarcinoma, human) which expresses the estrogen receptor (FIG. 3); and in bovine aortic endothelial cells (BAEC) (FIG. 4).
The effects of test compounds were examined on proliferation of A549 cells in response to 5% fetal calf serum (FCS). Analogues were pre-incubated with A549 cells for 30 min before the addition of FCS. The incubation continued for 48 h before cell enumeration. Data are expressed as a percentage of the cell number in vehicle treated wells and are presented as the mean and standard error of the mean. Similarly the effects of 2MEO and 4NO on proliferation of MCF7 in response to 5% FCS or epidermal growth factor (EGF, 300 pM) were examined, as were the effects of 2MEO and 4NO on proliferation of BAEC in response to 5% FCS. The incubation parameters were the same as described above and results are presented as the mean and standard error of the mean.
This assay was also used to evaluate the ability of other compounds to inhibit the proliferation of non-smooth muscle cells MCF7 and A549 (described above) in response to 5% FCS. The results of this assay are presented in Table 4 (columns G and H respectively). The potency of the compounds was considerably less in inhibiting proliferation of these cell lines than it was for HASM. These observations support the contention that there are cell type-specific targets for the actions of these compounds. Such assays may also be adopted to examine the effect of other disclosed compounds on these cells or on other non-smooth muscle cells of interest.

[2] = system: Human airway smooth muscle (HASM) cells; test: Thrombin-induced proliferation of human airway smooth muscle (HASM) cells, cell number after 48 h; assay type: cell-based; settings: for IC50: Homo sapiens, negative log of the concentration that reduces the thrombin-induced proliferative response by 50%, pIC50 of 4.00 = inactive, read-out: HASM-Thr pIC50 (converted); for HASM- Thr pIC25 / HASM- Thr pIC75: two site model, thrombin-induced proliferation; for HASM- Thr pIC25: first phase (inhibition up to 50%); for HASM- Thr pIC75: second phase (inhibition up to 100%)
Experimental: Human airway smooth muscle (HASM) cells were cultured from macroscopically normal bronchi (0.5-2 cm diameter) obtained from lung resection or heart-lung transplant specimens provided by the Alfred Hospital (Melbourne) according to methods published in detail previously (Fernandes et al., 1999).
Approximately 0.1 g of smooth muscle was stripped from the wall of the bronchus for each cell culture. Dissected tissue was immersed in Dulbecco's modified Eagle's medium (DMEM) (Flow Laboratories, Scotland), supplemented with 100 U/mL penicillin G (CSL, Australia) and 100 ug/mL streptomycin (CSL, Australia). The tissue was rinsed in phosphate buffered saline (PBS; Oxoid, England) and the airway smooth muscle was chopped into 2 mm^3 pieces and digested for 2 hours in DMEM containing elastase (0.5 mg/mL: Worthington Biochemical, USA) followed by a 12 hour incubation in DMEM containing collagenase (1 mg/mL) (Worthington Biochemical, USA), at 37° C. with agitation.
The resulting cell suspension was centrifuged and washed three times in phosphate buffered saline (PBS). Following the last centrifugation step, the cells were resuspended in 25 mL of DMEM supplemented with L-glutamine (2 mM: Sigma, USA), penicillin G (100 U/mL), streptomycin (100 μg/mL), amphotericin B (2 μg/mL: Wellcome, UK) and heat-inactivated FCS (10% v/v: CSL, Australia) and seeded into 25 cm^2 culture flasks. The primary isolates were incubated for 7 to 14 days to reach confluence.
Cells were harvested weekly by 10 min exposure to trypsin (0.5%: CSL, Australia) and EDTA (1 mM in PBS: BDH, Australia) and passaged at a 1:3 ratio into 75 cm^2 flasks.
The activity of the compounds has been established in cell culture by exploring their effects on mitogen-induced increases in cell number. We investigated the effects of 2MEO and its analogues, 4NO and 4NOM, on the proliferation of HASM cells in response to the proliferative stimulus of either thrombin of basic fibroblast growth factor (bFGF). Cells were seeded onto 6-well plates at a density of 1.5×10^4 cells cm^2, made quiescent by removal of serum-containing media for 24 hours and then stimulated for 48 h with either thrombin (0.3 U/ml) or bFGF (300 pM). The test compounds were pre-incubated with HASM cells for 30 minutes before the addition of thrombin. At the end of the 48 hour incubation period, cells were detached from the culture plate by trypsin (0.5% w/v in PBS containing 1 mM EDTA), incubated for 5 minutes at ambient temperature in PBS containing 0.5% (w/v) trypan blue, washed twice (2% FCS in PBS), isolated by centrifugation (12,000×g, 5 min) and resuspended in 200 μl 2% FCS in PBS for counting in a haemocytometer chamber.
Data are expressed as a percentage of the cell number in vehicle treated wells and are presented as the mean and standard error of the mean.
The potency of the compounds in regulating thrombin-induced proliferation of human airway smooth muscle (HASM) was assessed in cells maintained in culture as described above. The potencies are presented as pIC50 values (Column A of Table 4) denoting the negative log of the concentration that reduces the proliferative response by 50%. […] When the single phase model was determined to be more appropriate, the values of pIC25 and pIC75 were not calculated or shown in the table.

[3] = target: T1, Estrogen Receptor (ER) (Rattus norvegicus, UniProt P06211); test: Estrogen receptor binding assay, 3H-estradiol displacement from rat uterine cytosol; settings: 3H-estradiol displacement, cytosolic preparations of rat uterus; pIC50 of 4.00 = inactive; read-out: ER-RLB pIC50 (converted)
T1 construct: using rat uterine cytosol as a source of ER; from tissue; host or cells: rat uterus, cytosol fraction (30000 x g supernatant)
T1 sequence (P06211 1-600): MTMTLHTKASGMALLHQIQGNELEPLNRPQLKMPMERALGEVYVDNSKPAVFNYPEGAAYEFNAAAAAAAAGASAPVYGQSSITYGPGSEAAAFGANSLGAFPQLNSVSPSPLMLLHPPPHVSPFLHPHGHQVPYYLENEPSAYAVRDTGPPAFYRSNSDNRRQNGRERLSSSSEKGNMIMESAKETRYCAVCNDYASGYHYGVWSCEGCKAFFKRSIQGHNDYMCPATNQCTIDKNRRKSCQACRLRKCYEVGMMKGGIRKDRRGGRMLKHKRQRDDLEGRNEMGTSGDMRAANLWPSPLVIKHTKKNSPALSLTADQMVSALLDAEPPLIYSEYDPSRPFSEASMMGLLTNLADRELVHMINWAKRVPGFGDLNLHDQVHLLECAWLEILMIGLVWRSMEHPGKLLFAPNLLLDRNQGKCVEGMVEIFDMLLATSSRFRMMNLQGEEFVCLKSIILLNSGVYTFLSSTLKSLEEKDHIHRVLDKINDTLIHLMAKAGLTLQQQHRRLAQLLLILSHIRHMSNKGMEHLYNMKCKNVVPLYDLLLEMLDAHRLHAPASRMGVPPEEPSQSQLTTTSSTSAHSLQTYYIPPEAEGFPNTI
Experimental: Uteri (6-10 per batch) were isolated from Brown Norway rats (250-350g), washed free from blood in saline and homogenised in 10 mM Tris buffer (pH 7.4, 1.5 mM EDTA, 10% w/v glycerol, 1 mM phenylmethylsulfonylfluoride) using an Ultra Turrax homogeniser for 3 by 15 s bursts with intervals of 1 min on ice.
Nuclear material and cellular debris were removed by centrifugation at 750×g at 4° C. for 10 min (Sorvall RT7); the cytosol component was prepared by centrifugation at 30000×g for 120 min at 4° C. in a Beckman JM1 centrifuge. The cytosol was diluted to approximately 1 mg/ml protein (rat uterine extract) determined using the Bradford method (Biorad).
Separation of bound from free radioligand was achieved by the addition of 500 μL of dextran-coated charcoal (400 mg dextran clinical grade C and 2g of charcoal, Norit A in 100 mL of Tris buffer) and centrifugation at 4° C. in a Sorval RT7 at 2000×g for 10 min.

| SMILES | IC50 [1] | IC50 [2] | IC50 [3] | HASM- Thr pIC25 [2] | HASM- Thr pIC75 [2] |
| --- | --- | --- | --- | --- | --- |
| COc1cc2c(cc1O)/C(=N/OCc1ccccc1[N+](=O)[O-])C[C@@H]1[C@@H]2CC[C@]2(C)/C(=N/O)CC[C@@H]12 [CP-DM-3-117, 2-methoxy-6-(2-nitrobenzyloxy)iminoestrone-17-oxime] | 5130 nM | 6460 nM |  |  |  |
| COc1cc2c(cc1O)/C(=N/OCc1cccc(C(F)(F)F)c1)C[C@@H]1[C@@H]2CC[C@]2(C)/C(=N/O)CC[C@@H]12 [CP-DM-3-118, 2-methoxy-6-(3-trifluoromethylbenzyloxy)iminoestrone-17-oxime] |  | 2950 nM | 20900 nM |  |  |
| COc1cc2c(cc1O)/C(=N/OCc1ccccc1[N+](=O)[O-])C[C@@H]1[C@@H]2CC[C@]2(C)[C@@H](O)CC[C@@H]12 [CP-DM-3-124, 2-methoxy-6-(2-nitrobenzyloxy)iminoestradiol] |  | 44.7 nM | 891 nM | 9.35 | 6.36 |
| COc1cc2c(cc1O)/C(=N/OCc1ccncc1)C[C@@H]1[C@@H]2CC[C@]2(C)[C@@H](O)CC[C@@H]12 [CP-DM-4-16, 2-methoxy-6-(4-pyridylmethyloxy)iminoestradiol] |  | 1450 nM |  | 6.57 | 5.19 |
| COc1cc2c(cc1O)/C(=N/OCc1ccc(C#N)cc1)C[C@@H]1[C@@H]2CC[C@]2(C)[C@@H](O)CC[C@@H]12 [CP-DM-4-37, 6-(4-cyanobenzyloxy)imino-2-methoxyestradiol] |  | 12900 nM | 6460 nM |  |  |
| COc1cc2c(cc1O)/C(=N/OCc1cccc(C#N)c1)C[C@@H]1[C@@H]2CC[C@]2(C)/C(=N/O)CC[C@@H]12 [CP-DM-4-51, 2-methoxy-6-(3-cyanobenzyloxy)iminoestrone-17-oxime] |  | 4370 nM | 34700 nM | 5.46 | 5.26 |
| COc1cc2c(cc1O)/C(=N/OCc1cccc(C#N)c1)C[C@@H]1[C@@H]2CC[C@]2(C)[C@@H](O)CC[C@@H]12 [CP-DM-4-52, 2-methoxy-6-(3-cyanobenzyloxy)iminoestradiol] |  | 955 nM | 398 nM |  |  |
| COc1cccc(CO/N=C2\C[C@@H]3[C@H](CC[C@]4(C)[C@@H](O)CC[C@@H]34)c3cc(OC)c(O)cc32)c1 [CP-DM-4-62, 2-methoxy-6-(3-methoxybenzyloxy)iminoestradiol] |  | 2190 nM | 1000 nM | 5.69 | 5.63 |
| COc1cc2c(cc1O)/C(=N/OCc1cccc(OC(F)(F)F)c1)C[C@@H]1[C@@H]2CC[C@]2(C)[C@@H](O)CC[C@@H]12 [CP-DM-4-63, 2-methoxy-6-(3-trifluoromethoxybenzyloxy)iminoestradiol] |  | 347 nM | 135 nM | 7.70 | 5.62 |
| COc1cc2c(cc1O)/C(=N/OCc1ccc(OC(F)(F)F)cc1)C[C@@H]1[C@@H]2CC[C@]2(C)[C@@H](O)CC[C@@H]12 [CP-DM-4-64, 2-methoxy-6-(4-trifluoromethoxybenzyloxy)iminoestradiol] |  | 2450 nM | 1580 nM | 6.56 | 4.81 |
| COc1cccc(CO/N=C2\C[C@@H]3[C@H](CC[C@]4(C)/C(=N/O)CC[C@@H]34)c3cc(OC)c(O)cc32)c1 [CP-DM-4-66, 2-methoxy-6-(3-methoxybenzyloxy)iminoestrone-17-oxime] |  | 10000 nM |  |  |  |
| COc1cc2c(cc1O)/C(=N/OCc1cccc(OC(F)(F)F)c1)C[C@@H]1[C@@H]2CC[C@]2(C)/C(=N/O)CC[C@@H]12 [CP-DM-4-67, 2-methoxy-6-(3-trifluoromethoxybenzyloxy)iminoestrone-17-oxime] |  | 10000 nM |  |  |  |
| CO/N=C1\CC[C@H]2[C@@H]3C/C(=N\OCc4ccc([N+](=O)[O-])cc4)c4cc(O)c(OC)cc4[C@H]3CC[C@]12C [CP-DM-4-75, 6-(4-nitrobenzyloxy)imino-2-methoxyestrone-17-methyloxime] |  | 2570 nM |  |  |  |
| COc1cc2c(cc1O)/C(=N/OCc1ccc(C)cc1)C[C@@H]1[C@@H]2CC[C@]2(C)/C(=N/O)CC[C@@H]12 [CP-DM-4-76, 2-methoxy-6-(4-methylbenzyloxy)iminoestrone-17-oxime] |  | 4270 nM |  |  |  |
| C[C@]12CC[C@@H]3c4ccc(O)cc4/C(=N/OCc4cc(F)cc(F)c4)C[C@H]3[C@@H]1C[C@@H](O)[C@@H]2O [CP-DM-4-88, 6-(3,5-difluorobenzyloxy)iminoestriol] |  | 15800 nM |  |  |  |
| C#C[C@]1(O)CC[C@H]2[C@@H]3C/C(=N\OCc4ccc([N+](=O)[O-])cc4)c4cc(O)ccc4[C@H]3CC[C@@]21C [CP-DM-4-89, 6-(4-nitrobenzyloxy)imino-17-ethinyl-estradiol] |  |  | 5620 nM |  |  |
